Test results reported in ChEMBL document CHEMBL3813623, “Novel approaches to map small molecule-target interactions” (Bioorg Med Chem, 2016).

Biological target: T1, Bile acid receptor (Homo sapiens, UniProt Q96RI1)
T1 sequence (Q96RI1 whole entry): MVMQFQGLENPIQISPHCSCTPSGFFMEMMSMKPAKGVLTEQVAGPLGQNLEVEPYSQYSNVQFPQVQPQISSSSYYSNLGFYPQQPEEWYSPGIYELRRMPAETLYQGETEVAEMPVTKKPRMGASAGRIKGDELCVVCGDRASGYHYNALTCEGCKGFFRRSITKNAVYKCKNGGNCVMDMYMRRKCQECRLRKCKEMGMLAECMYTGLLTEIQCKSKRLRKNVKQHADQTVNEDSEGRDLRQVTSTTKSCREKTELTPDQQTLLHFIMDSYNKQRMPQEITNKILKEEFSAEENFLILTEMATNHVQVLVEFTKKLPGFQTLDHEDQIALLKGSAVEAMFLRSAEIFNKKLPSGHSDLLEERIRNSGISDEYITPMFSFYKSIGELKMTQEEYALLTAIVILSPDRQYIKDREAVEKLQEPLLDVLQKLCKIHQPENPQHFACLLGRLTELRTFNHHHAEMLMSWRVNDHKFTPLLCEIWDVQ
Assay: Agonist activity at farnesoid x receptor(unknown origin)

CNC(=O)O[C@@H](CC(C)C)c1nc([C@H]2OC(=O)/C(C)=C/C/C(C)=C/[C@@H](O)[C@@H](C)\C=C(C)/C=C(C)\C=C\[C@@H](O)[C@H](C)[C@H](OC)/C(C)=C/C=C/[C@@H]2C)cs1 [ARCHAZOLID A]
EC50: 200 nM
